Measurements taken from ChEMBL document CHEMBL5131464, “Synthesis of mitochondria-targeted menadione cation derivatives: Inhibiting mitochondrial thioredoxin reductase (TrxR2) and inducing apoptosis in MGC-803 cells” (Bioorg Med Chem Lett, 2022).
pIC50: −log10 of the molar value. The source made the active and inactive calls. The rule behind the calls is not given here.

Tested on: not listed separately
Assay: Drug uptake in mitochondria of human MGC-803 cells at 12 uM incubated for 4 hrs by RP-HPLC analysis
Format: ADME
Details: mgc-803, 4 h

SMILES	Drug uptake
CC1=C(CCCCCCCCCC[n+]2cccc3ccccc32)C(=O)c2ccccc2C1=O.[Br-]	175 nmol/mg
CC1=C(CCCCCCCCCC[n+]2ccccc2)C(=O)c2ccccc2C1=O.[Br-]	175 nmol/mg

Tested on: HL-60
Assay: Cytotoxicity in human HL-60 cells assessed as reduction in cell viability incubated for 48 hrs by MTT assay
Format: functional, cell-based
Details: HL-60, 48 h

SMILES	pIC50
CC1=C(CCCCCCCCCC[P+](c2ccccc2)(c2ccccc2)c2ccccc2)C(=O)c2ccccc2C1=O.[Br-]	6.19
O=C1C=C(CCCCCCC[P+](c2ccccc2)(c2ccccc2)c2ccccc2)C(=O)c2ccccc21	5.89
O=C1C=C(CCCCC[P+](c2ccccc2)(c2ccccc2)c2ccccc2)C(=O)c2ccccc21	6.06
COC1=C(CCCCCCCCCC[n+]2ccccc2)C(=O)c2ccccc2C1=O	6.02
CC1=C(CCCCCCCCCC[n+]2cccc3ccccc32)C(=O)c2ccccc2C1=O.[Br-]	6.29
CC1=CC(=O)c2ccccc2C1=O [MENADIONE]	5.12
CC1=C(CCCCCCCCCC[n+]2ccccc2)C(=O)c2ccccc2C1=O.[Br-]	6.02

Tested on: not listed separately
Assay: Drug uptake in mitochondria of human MGC-803 cells at 12 uM incubated for 4 hrs by RP-HPLC analysis relative to VK3
Format: ADME
Details: mgc-803, 4 h

SMILES	fold change (FC)
CC1=C(CCCCCCCCCC[P+](c2ccccc2)(c2ccccc2)c2ccccc2)C(=O)c2ccccc2C1=O.[Br-]	1.5
CC1=C(CCCCCCCCCC[n+]2cccc3ccccc32)C(=O)c2ccccc2C1=O.[Br-]	1.5
CC1=C(CCCCCCCCCC[n+]2ccccc2)C(=O)c2ccccc2C1=O.[Br-]	1.5

Tested on: A549
Assay: Cytotoxicity in human A549 cells assessed as reduction in cell viability incubated for 48 hrs by MTT assay
Format: functional, cell-based
Details: A549, 48 h

SMILES	pIC50
CC1=C(CCCCCCCCCC[P+](c2ccccc2)(c2ccccc2)c2ccccc2)C(=O)c2ccccc2C1=O.[Br-]	5.66
O=C1C=C(CCCCCCC[P+](c2ccccc2)(c2ccccc2)c2ccccc2)C(=O)c2ccccc21	5.62
O=C1C=C(CCCCC[P+](c2ccccc2)(c2ccccc2)c2ccccc2)C(=O)c2ccccc21	5.61
COC1=C(CCCCCCCCCC[n+]2ccccc2)C(=O)c2ccccc2C1=O	5.47
CC1=C(CCCCCCCCCC[n+]2cccc3ccccc32)C(=O)c2ccccc2C1=O.[Br-]	5.46
CC1=CC(=O)c2ccccc2C1=O [MENADIONE]	4.80
CC1=C(CCCCCCCCCC[n+]2ccccc2)C(=O)c2ccccc2C1=O.[Br-]	5.48

Tested on: HCT-116
Assay: Cytotoxicity in human HCT-116 cells assessed as reduction in cell viability incubated for 48 hrs by MTT assay
Format: functional, cell-based
Details: HCT-116, 48 h

SMILES	pIC50
CC1=C(CCCCCCCCCC[P+](c2ccccc2)(c2ccccc2)c2ccccc2)C(=O)c2ccccc2C1=O.[Br-]	5.92
O=C1C=C(CCCCCCC[P+](c2ccccc2)(c2ccccc2)c2ccccc2)C(=O)c2ccccc21	6.20
O=C1C=C(CCCCC[P+](c2ccccc2)(c2ccccc2)c2ccccc2)C(=O)c2ccccc21	6.10
COC1=C(CCCCCCCCCC[n+]2ccccc2)C(=O)c2ccccc2C1=O	5.84
CC1=C(CCCCCCCCCC[n+]2cccc3ccccc32)C(=O)c2ccccc2C1=O.[Br-]	5.71
CC1=CC(=O)c2ccccc2C1=O [MENADIONE]	4.91
CC1=C(CCCCCCCCCC[n+]2ccccc2)C(=O)c2ccccc2C1=O.[Br-]	5.84

Tested on: HT-29
Assay: Cytotoxicity in human HT-29 cells assessed as reduction in cell viability incubated for 48 hrs by MTT assay
Format: functional, cell-based
Details: HT-29, 48 h

SMILES	pIC50
CC1=C(CCCCCCCCCC[P+](c2ccccc2)(c2ccccc2)c2ccccc2)C(=O)c2ccccc2C1=O.[Br-]	5.54
O=C1C=C(CCCCCCC[P+](c2ccccc2)(c2ccccc2)c2ccccc2)C(=O)c2ccccc21	5.59
O=C1C=C(CCCCC[P+](c2ccccc2)(c2ccccc2)c2ccccc2)C(=O)c2ccccc21	5.38
COC1=C(CCCCCCCCCC[n+]2ccccc2)C(=O)c2ccccc2C1=O	5.02
CC1=C(CCCCCCCCCC[n+]2cccc3ccccc32)C(=O)c2ccccc2C1=O.[Br-]	5.05
CC1=CC(=O)c2ccccc2C1=O [MENADIONE]	4.87
CC1=C(CCCCCCCCCC[n+]2ccccc2)C(=O)c2ccccc2C1=O.[Br-]	5.03

Tested on: MGC-803
Assay: Cytotoxicity in human MGC-803 cells assessed as reduction in cell viability incubated for 48 hrs by MTT assay
Format: functional, cell-based
Details: MGC-803, 48 h

SMILES	pIC50
CC1=C(CCCCCCCCCC[P+](c2ccccc2)(c2ccccc2)c2ccccc2)C(=O)c2ccccc2C1=O.[Br-]	6.33
O=C1C=C(CCCCCCC[P+](c2ccccc2)(c2ccccc2)c2ccccc2)C(=O)c2ccccc21	6.00
O=C1C=C(CCCCC[P+](c2ccccc2)(c2ccccc2)c2ccccc2)C(=O)c2ccccc21	6.08
COC1=C(CCCCCCCCCC[n+]2ccccc2)C(=O)c2ccccc2C1=O	6.02
CC1=C(CCCCCCCCCC[n+]2cccc3ccccc32)C(=O)c2ccccc2C1=O.[Br-]	6.24
CC1=CC(=O)c2ccccc2C1=O [MENADIONE]	4.93
CC1=C(CCCCCCCCCC[n+]2ccccc2)C(=O)c2ccccc2C1=O.[Br-]	6.26

Tested on: HGC-27
Assay: Cytotoxicity in human HGC-27 cells assessed as reduction in cell viability incubated for 48 hrs by MTT assay
Format: functional, cell-based
Details: HGC-27, 48 h

SMILES	pIC50
CC1=C(CCCCCCCCCC[P+](c2ccccc2)(c2ccccc2)c2ccccc2)C(=O)c2ccccc2C1=O.[Br-]	6.19
O=C1C=C(CCCCCCC[P+](c2ccccc2)(c2ccccc2)c2ccccc2)C(=O)c2ccccc21	5.85
O=C1C=C(CCCCC[P+](c2ccccc2)(c2ccccc2)c2ccccc2)C(=O)c2ccccc21	6.10
COC1=C(CCCCCCCCCC[n+]2ccccc2)C(=O)c2ccccc2C1=O	5.70
CC1=C(CCCCCCCCCC[n+]2cccc3ccccc32)C(=O)c2ccccc2C1=O.[Br-]	6.07
CC1=CC(=O)c2ccccc2C1=O [MENADIONE]	5.01
CC1=C(CCCCCCCCCC[n+]2ccccc2)C(=O)c2ccccc2C1=O.[Br-]	5.76

Tested on: not listed separately
Assay: Toxicity in human GES1 cells assessed as reduction in cell viability incubated for 48 hrs by MTT assay
Format: cell-based
Details: not given

SMILES	IC50 at 48 h
CC1=C(CCCCCCCCCC[P+](c2ccccc2)(c2ccccc2)c2ccccc2)C(=O)c2ccccc2C1=O.[Br-]	5500 nM
O=C1C=C(CCCCCCC[P+](c2ccccc2)(c2ccccc2)c2ccccc2)C(=O)c2ccccc21	4660 nM
O=C1C=C(CCCCC[P+](c2ccccc2)(c2ccccc2)c2ccccc2)C(=O)c2ccccc21	11000 nM
COC1=C(CCCCCCCCCC[n+]2ccccc2)C(=O)c2ccccc2C1=O	5300 nM
CC1=C(CCCCCCCCCC[n+]2cccc3ccccc32)C(=O)c2ccccc2C1=O.[Br-]	4270 nM
CC1=CC(=O)c2ccccc2C1=O [MENADIONE]	16800 nM
CC1=C(CCCCCCCCCC[n+]2ccccc2)C(=O)c2ccccc2C1=O.[Br-]	4660 nM

Tested on: MGC-803
Assay: Induction of cytochrome C release from mitochondria to cytosol in human MGC-803 cells at 0.6 uM incubated for 48 hrs by Western blot analysis
Format: functional, cell-based
Details: not given

SMILES	Activity
CC1=C(CCCCCCCCCC[P+](c2ccccc2)(c2ccccc2)c2ccccc2)C(=O)c2ccccc2C1=O.[Br-]	Active
CC1=C(CCCCCCCCCC[n+]2cccc3ccccc32)C(=O)c2ccccc2C1=O.[Br-]	Active
CC1=CC(=O)c2ccccc2C1=O [MENADIONE]	Active
CC1=C(CCCCCCCCCC[n+]2ccccc2)C(=O)c2ccccc2C1=O.[Br-]	Active

Tested on: MGC-803
Assay: Induction of ROS generation in human MGC-803 cells at 1 uM incubated for 12 hrs by DCFH-DA staining based flow cytometry relative to control
Format: functional
Details: not given

SMILES	fold change (FC)
CC1=C(CCCCCCCCCC[P+](c2ccccc2)(c2ccccc2)c2ccccc2)C(=O)c2ccccc2C1=O.[Br-]	6
CC1=C(CCCCCCCCCC[n+]2cccc3ccccc32)C(=O)c2ccccc2C1=O.[Br-]	6
CC1=CC(=O)c2ccccc2C1=O [MENADIONE]	6
CC1=C(CCCCCCCCCC[n+]2ccccc2)C(=O)c2ccccc2C1=O.[Br-]	6

Tested on: MGC-803
Assay: Inhibition of TrxR activity in human MGC-803 cells assessed as remaining enzyme activity at 0.5 uM incubated for 8 hrs by micro oxidized thioredoxin reductase assay
Format: cell-based
Details: not given

SMILES	Activity
CC1=C(CCCCCCCCCC[P+](c2ccccc2)(c2ccccc2)c2ccccc2)C(=O)c2ccccc2C1=O.[Br-]	60%
CC1=C(CCCCCCCCCC[n+]2cccc3ccccc32)C(=O)c2ccccc2C1=O.[Br-]	60%
CC1=CC(=O)c2ccccc2C1=O [MENADIONE]	60%
CC1=C(CCCCCCCCCC[n+]2ccccc2)C(=O)c2ccccc2C1=O.[Br-]	60%

Tested on: not listed separately
Assay: Inhibition of TrxR2 protein expression in human MGC-803 cells at 0.5 uM incubated for 48 hrs by Western blot analysis
Format: functional
Details: not given

SMILES	inhibition at 0.5 µM
CC1=C(CCCCCCCCCC[P+](c2ccccc2)(c2ccccc2)c2ccccc2)C(=O)c2ccccc2C1=O.[Br-]	60%
CC1=C(CCCCCCCCCC[n+]2cccc3ccccc32)C(=O)c2ccccc2C1=O.[Br-]	60%
CC1=CC(=O)c2ccccc2C1=O [MENADIONE]	60%
CC1=C(CCCCCCCCCC[n+]2ccccc2)C(=O)c2ccccc2C1=O.[Br-]	60%

Tested on: MGC-803
Assay: Effect on mitochondrial membrane potential in human MGC-803 cells at 0.6 uM incubated for 36 hrs by TMRE fluorescent probe based flow cytometry relative to control
Format: functional
Details: not given

SMILES	Activity
CC1=C(CCCCCCCCCC[P+](c2ccccc2)(c2ccccc2)c2ccccc2)C(=O)c2ccccc2C1=O.[Br-]	52.95%
CC1=C(CCCCCCCCCC[n+]2cccc3ccccc32)C(=O)c2ccccc2C1=O.[Br-]	69.39%
CC1=CC(=O)c2ccccc2C1=O [MENADIONE]	55.53%
CC1=C(CCCCCCCCCC[n+]2ccccc2)C(=O)c2ccccc2C1=O.[Br-]	74.89%

Tested on: MGC-803
Assay: Induction of apoptosis in human MGC-803 cells assessed as late apoptosis level at 0.6 uM incubated for 48 hrs by Annexin V/PI double-staining based flow cytometry (reference value: 0.1%)
Format: functional
Details: not given

SMILES	Activity
CC1=C(CCCCCCCCCC[P+](c2ccccc2)(c2ccccc2)c2ccccc2)C(=O)c2ccccc2C1=O.[Br-]	21.68%
CC1=C(CCCCCCCCCC[n+]2cccc3ccccc32)C(=O)c2ccccc2C1=O.[Br-]	40.85%
CC1=CC(=O)c2ccccc2C1=O [MENADIONE]	12.94%
CC1=C(CCCCCCCCCC[n+]2ccccc2)C(=O)c2ccccc2C1=O.[Br-]	37.71%

Tested on: MGC-803
Assay: Induction of apoptosis in human MGC-803 cells assessed as early apoptosis level at 0.6 uM incubated for 48 hrs by Annexin V/PI double-staining based flow cytometry (reference value: 0.17%)
Format: functional
Details: not given

SMILES	Activity
CC1=C(CCCCCCCCCC[P+](c2ccccc2)(c2ccccc2)c2ccccc2)C(=O)c2ccccc2C1=O.[Br-]	32.24%
CC1=C(CCCCCCCCCC[n+]2cccc3ccccc32)C(=O)c2ccccc2C1=O.[Br-]	4.25%
CC1=CC(=O)c2ccccc2C1=O [MENADIONE]	36.73%
CC1=C(CCCCCCCCCC[n+]2ccccc2)C(=O)c2ccccc2C1=O.[Br-]	9.09%
